In ChEMBL document CHEMBL1148219, “Cytotoxic sesquiterpene lactones from Eupatorium lindleyanum” (J Nat Prod, 2004):
In brackets after ≈: the same amount, converted by molar mass. Activity calls are given as the source filed them. The calls are words filed in the database; no cut-off is given here.

What was measured:
P388 = assay: Cytotoxicity against mouse P388 cells after 24 hrs; assay type: functional, cell-based; conditions: for IC50: P388, 24 h
A549 = assay: Cytotoxicity against human A549 cells after 24 hrs; assay type: functional, cell-based; conditions: for IC50: A549, 24 h

C=C1C(=O)O[C@@H]2[C@H]3C(C)=C[C@@H](O)[C@H]3[C@@](O)(CO)C[C@@H](OC(=O)/C(C)=C/CO)[C@@H]12
Activity (P388): inactive | Activity (A549): inactive

C=C1C(=O)O[C@H]2[C@H]1[C@H](OC(=O)/C(C)=C/CO)C[C@](O)(CO)[C@@H]1[C@H](O)[C@H]3O[C@@]3(C)[C@H]21
Activity (P388): inactive | Activity (A549): inactive

C=C1C(=O)O[C@H]2[C@H]1[C@H](OC(=O)/C(C)=C/CO)CC(=C)[C@@H]1C=C[C@@](C)(O)[C@H]21 [EUPALINILIDE B]
IC50 (P388): 0.21 µg/mL (≈ 0.583 µM) | IC50 (A549): 0.75 µg/mL (≈ 2.08 µM)

C=C1C(=O)O[C@@H]2[C@H]3C(C)=C[C@H]4OC[C@@](O)(C[C@@H](OC(=O)/C(C)=C/CO)[C@@H]12)[C@@H]34 [EUPALINILIDE C]
IC50 (P388): 1.2 µg/mL (≈ 3.19 µM) | IC50 (A549): 11 µg/mL (≈ 29.2 µM)

C=C1C(=O)O[C@@H]2[C@H]3C(C)=C[C@@H](O)[C@H]3[C@@](O)(CCl)C[C@@H](OC(=O)/C(C)=C/C)[C@@H]12 [EUPALINILIDE E]
Activity (P388): inactive | IC50 (A549): 0.028 µg/mL (≈ 0.0706 µM)

COC(=O)C1=CC[C@@]23CC[C@@H]([C@@](C)(/C=C/C=C(\C)C(=O)O)OC2=O)[C@@]3(OC(C)=O)CC1 [PSEUDOLARIC ACID B]
IC50 (A549): 0.86 µg/mL (≈ 1.99 µM)
